In patent publication US20030114482A1, “Use of retinoid receptor antagonists or agonists in the treatment of cartilage and bone pathologies” (priority 1999, published 2003):

What was measured:
[1] = system: humerus development (chondrocyte maturation, endochondral ossification); assay: Antagonist-filled bead implantation in chick embryo wing bud, humerus development; format: in vivo
Method: This procedure was carried out as described previously (Noji et al., Acta Histochem. Cytochem. 23, 353-366 (1990); Koyama et al., Dev. Dynam. 203, 152-162 (1995)). Briefly, chick embryos or embryo parts were fixed with 4% paraformaldehyde for 4 hr or overnight, embedded in paraffin and sectioned. The 5 μm thick sections were pretreated with 1 μg/ml proteinase K (Sigma, St. Louis, Mo.) in 50 mM Tris, 5 mM EDTA, pH 7.5 at room temperature for 1 min, immediately postfixed in 4% paraformaldehyde buffer for 10 min, and then washed twice in PBS containing 2 mg/ml glycine for 10 min/wash. Sections were treated for 15 min with a freshly prepared solution of 0.25% acetic anhydride in triethanolamine buffer. Sections were hybridized with ^35S-labeled antisense or sense chick cDNA riboprobes (approximately 1×10^6 DPM/section) at 50° C. for 16 hr. After hybridization, slides were washed three times with 2×SSC containing 50% formamide at 50° C. for 20 min/wash, treated with 20 μg/ml RNaseA for 30 min at 37° C., and finally washed three times with 0.1×SSC at 50° C. for 10 min/wash. Sections were coated with Kodak NTB3 emulsion diluted 1:1 with water, exposed for 7 days, and developed with Kodak D19 for 3 min at 20° C. After staining with hematoxylin and eosin, slides were analyzed with a Nikon microscope using bright and dark field optics.
This range of concentrations was based on previous studies (see, for example, Lu et al., Development 124, 1643-1651 (1997)). Antagonist solutions were prepared in DMSO and used under yellow light conditions; control beads were soaked in DMSO alone. Beads were then dipped very briefly in phenol red-containing saline (HBSS) so that they were more readily visible during implantation.
Antagonist-containing or control beads were implanted in the wing bud of stage 21-22 (Day 3-3.5) or stage 27-28 (Day 5.5) chick embryos (Hamburger and Hamilton, J. Morphol. 88, 49-92 (1951)); contralateral wing bud served as control. A small window was opened in the egg shell and a small incision was made on the antero-dorsal proximal portion of the bud. One bead or several beads were then placed in the vicinity of the prospective humerus as specified below, and eggs were sealed and returned to the incubator. On the day of analysis, embryos were sacrificed by decapitation, and control and operated wings were examined by microscopy, using a Nikon SMZ-U dissecting photomicroscope, and humerus length was measured micrometrically. Because length of control humeri varied slightly from embryo to embryo, possibly reflecting slight differences in age, humeri were considered affected by antagonist treatment only if their length was shortened at least 25% over control value. Companion control and antagonist-treated limbs were processed for histology and in situ hybridization using tissue sections.
Having shown that RAR gene expression changes during chondrocyte maturation and that the cartilaginous elements as well as their surrounding perichondrial tissues contain endogenous retinoids, experiments were carried out to determine what roles the RARs and their ligands may play during chondrocyte maturation and skeletogenesis (see Example I, Antagonist Treatment). To approach this question, a bead containing retinoid antagonists was implanted in the vicinity of the prospective humeral mesenchymal condensation in stage 21-22 (Day 3-3.5) chick embryos and determined whether humerus development had been impaired by Day 10 in vivo.

[2] = target: T1, RARγ (Homo sapiens, UniProt P13631); assay: RAR antagonism, IC50 for RARγ (literature); format: biochemical
T1 sequence (P13631 1-454): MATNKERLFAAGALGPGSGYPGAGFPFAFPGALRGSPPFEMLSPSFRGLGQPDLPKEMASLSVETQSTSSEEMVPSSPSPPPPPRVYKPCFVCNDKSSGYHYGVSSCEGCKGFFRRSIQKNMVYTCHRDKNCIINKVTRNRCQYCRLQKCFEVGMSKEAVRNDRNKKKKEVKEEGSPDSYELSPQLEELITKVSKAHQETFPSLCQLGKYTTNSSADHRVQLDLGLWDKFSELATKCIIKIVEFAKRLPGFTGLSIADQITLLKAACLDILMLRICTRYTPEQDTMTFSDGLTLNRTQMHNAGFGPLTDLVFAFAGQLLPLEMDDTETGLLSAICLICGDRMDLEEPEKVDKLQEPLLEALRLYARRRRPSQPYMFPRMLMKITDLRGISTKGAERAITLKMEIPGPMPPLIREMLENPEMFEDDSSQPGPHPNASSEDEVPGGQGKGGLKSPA

[3] = target: T1, RARγ; conditions: cited from earlier work
[4] = system: RARa, β and γ; conditions: cited from earlier work
[5] = system: RARE/β-galactosidase reporter construct in F9 teratocarcinoma cell line; assay: F9 teratocarcinoma RARE/β-galactosidase reporter bioassay; format: cell-based
Method: The β-gal assay consists of an F9 teratocarcinoma cell line stably transfected with a reporter construct which contains a 64 bp retinoic acid-response element (RARE) from the promoter region of the human RARβ gene (Ellis et al., Nature 343, 377-381 (1990)) placed immediately upstream of the E. coli lacZ gene. […] Cells were maintained on gelatin-coated dishes in modified L15 CO2 tissue culture medium (Specialty Media, Lavallette, N.J.) supplemented with 20% fetal calf serum and 0.8 mg/ml G418 (complete medium), and were used when 80-90% confluent.
To prepare tissue extracts, tissues were surgically isolated from Day 10 chick embryos and included. The metaphyseal-diaphyseal portion of cartilaginous humerus and tibia from which adherent perichondral tissues were carefully removed, liver, brain, gizzard and heart. During isolation, all tissues were kept in saline on ice under yellow safety light conditions to protect the retinoids. […]
Briefly, cultures were fixed with 0.1% glutaraldehyde in 0.1 M phosphate buffer pH 7.0 for 15 min at room temperature. […] After rinsing again, cultures were extracted with 0.2 ml of DMSO and absorbance of the extracted material was determined at 655 nm using a Perkin-Elmer spectrophotometer. […]

[6] = system: RARE/β-galactosidase reporter construct in F9 teratocarcinoma cell line; conditions: cited from earlier work
[7] = system: cephalic core sternal chondrocytes; assay: Mineralization of cultured cephalic core sternal chondrocytes, alizarin red staining; format: cell-based, chick; conditions: 6 days
Method: (§1) Cell populations rich in prehypertrophic and early hypertrophic chondrocytes were isolated from the cephalic core region of Day 17-18 chick embryo sterna, while immature chondrocytes were isolated from the caudal sternal region (Gibson and Flint, J. Cell Biol. 101, 277-284 (1985); Pacifici et al., Exp. Cell Res. 195, 38-46 (1991); Iwamoto et al., Exp. Cell Res. 207, 413-420 (1993b)). The dissected cephalic and caudal tissues were incubated for 1 hr at 37° C. in saline containing 0.1% type 1-S collagenase (Sigma Chemical Co., St. Louis, Mo.); the cells released after this incubation were discarded as they consisted mainly of perichondrial and blood cells. The remaining tissue was incubated in a fresh mixture of 0.25% trypsin and 0.1% collagenase for 3 hr at which point it was completely digested. The freshly isolated chondrocytes were plated at a density of 2×10^5 cells/well in 12-well plates, 1×10^6 cells/60 mm dish or 3×10^6 cells/100 mm dish. The cephalic core chondrocytes were grown continuously, without subculturing, for 2 to 3 weeks in monolayer. During the first 2 days, cultures received 4 U/ml of testicular hyaluronidase to minimize cell detachment (Leboy et al., J. Biol. Chem. 264, 17281-17286 (1989)), and cultures became confluent by 2 weeks. The caudal immature chondrocytes were first grown for 5 days at which point floating immature chondrocytes were separated from attached contaminating fibroblastic cells. The floating cells were trypsinized and replated in secondary cultures in the presence of hyaluronidase to increase cell attachment. Cultures were fed every other day with Dulbecco's modified high-glucose Eagle's medium (GIBCO BRL, Gaithersburg, Md.) containing 10% defined fetal calf serum (Hyclone, Logan, Utah), 2 mM L-glutamine, and 50 U/ml penicillin and streptomycin (Pacifici et al., Exp. Cell Res. 195, 38-46 (1991)). When indicated, cultures were treated with all-trans-RA (Sigma) or combinations of all-trans-RA and Ro 41-5253. […]

[8] = system: cephalic core sternal chondrocytes; assay: Cultured cephalic core sternal chondrocytes, alkaline phosphatase and type X collagen gene expression; format: cell-based, chick
Method: as §1, with “41-5253. Stock solutions of these retinoids were prepared in DMSO and were diluted into working solutions in 95% ethanol; control dishes received an equivalent amount of vehicle without retinoids. To analyze mineralization, cephalic sternal control and retinoid-treated cultures were supplemented with 3 mM β-glycerophosphate to serve as a phosphate source. During these various regimens, medium was changed daily. To localize calcium deposits, the cell layers were stained with 0.5% alizarin red S solution, pH 4.0, for 5 min at room temperature. In experiments in which cultures were treated for 2, 4 or 6 days, retinoid treatments were initiated so that all cultures (including control cultures) were harvested simultaneously.” for “41-5253.”

[9] = system: caudal sternal chondrocytes; assay: Cultured immature caudal sternal chondrocytes, Northern blot of type X collagen; format: cell-based, chick
Method: as §1

[10] = beads implanted Day 5.5, examined Day 8.5

Structure (SMILES): Cc1ccc(C2=CCC(C)(C)c3ccc(C#Cc4ccc(C(=O)O)cc4)cc32)cc1 [AGN 109]
- embryos with inhibited humerus development ([1]; 3-4 beads implanted Day 5.5 (stage 28), examined Day 8.5): 6/7
- chondrocyte maturation and endochondral ossification in treated humerus (histology, in situ hybridization) ([1]; bead implanted at early stage, Day 10 humeri): chondrocyte maturation and long bone development are interrupted
- concentration required for high frequency of humeral defects, relative to Ro 41-5253 ([1]; bead implanted stage 21-22, Day 10): much lower concentrations
- hypertrophy and RARγ / type X collagen transcripts in treated humeri [1, 10]: had not advanced to the hypertrophic stage and lacked transcripts encoding RARγ and type X collagen
- type II collagen expression in treated humeri (cell viability and differentiated functions) [1, 10]: very strong expression of type II collagen
- delay of humerus development (reversibility) ([1]; beads implanted stage 28 (Day 5.5), examined Day 14): about 5 days
- inhibition of humerus development ([1]; single bead implanted Day 5.5 (stage 28), examined Day 8.5 (5/5)): not very effective
- fold lower IC50 for RARγ compared to Ro 41-5253 [2]: ~500 fold
- IC50 [3]: 5 nM
- antagonism across RAR isotypes (selectivity in words) [4]: inhibits equally well RARa, β and γ

Structure (SMILES): CC1=C(/C=C/C(C)=C/C=C/C(C)=C/C(=O)O)C(C)(C)CCC1 [all-trans-RA]
- β-galactosidase reporter response (histochemical) ([5]; 3 nM, 24 hr, positive control): positive
- lowest exogenous concentration to which reporter cells are very sensitive (high expression of β-gal) [6]: 10 pM
- mineral deposition (alizarin red) ([7]; 25 or 50 nM, with β-glycerophosphate): abundant alizarin red-stainable mineral
- alkaline phosphatase gene expression ([8]; 50 nM): increased dramatically
- type X collagen expression ([8]; 50 nM, 6 days of treatment): essentially eliminated
- type X collagen transcripts ([9]; 50 nM, 2, 4 or 6 days): marked time-dependent increase

Structure (SMILES): CCCCCCCOc1cc2c(cc1/C(C)=C/c1ccc(C(=O)O)cc1)C(C)(C)CCS2(=O)=O [Ro 41-5253]
- humerus shortening versus control contralateral humerus ([1]; bead implanted stage 21-22, Day 10 embryos): about 50%
- IC50 [3]: 3300 nM
- antagonism across RAR isotypes (selectivity in words) [4]: antagonistic effects on all RAR isoforms but preferentially on RARa
- mineralization on co-treatment with all-trans-RA ([7]; 500 nM with 25 or 50 nM all-trans-RA): almost no mineralization
- mineralization, antagonist alone ([7]; antagonist alone): had no effects
- alkaline phosphatase and type X collagen gene expression, antagonist alone ([8]; antagonist alone): no major effects
- effect on all-trans-RA responses of alkaline phosphatase and type X collagen genes ([8]; co-treatment with 50 nM all-trans-RA, Ro 41-5253 at 500 nM): counteracted
- type X collagen transcripts, antagonist alone ([9]; antagonist alone): did not have major effects
- effect on all-trans-RA-induced increase in type X collagen transcripts ([9]; co-treatment 500 nM with 50 nM all-trans-RA): significantly, though not totally, blocked

Structure (SMILES): CC1=C(/C=C/C(C)=C\C=C\C(C)=C\C(=O)O)C(C)(C)CCC1 [9-cis-RA]
- efficiency of stimulating transcription, fold lower than all-trans-RA ([5]; F9 reporter cells, unpublished observations): 10 fold
